# Laboratory results reported in ChEMBL document CHEMBL3885881, “DrugMatrix”.
# Organism: Rattus norvegicus
# Experiment: DrugMatrix - Regimen: Daily Repeat
# Assay type: toxicity, organism-based, Sprague-Dawley
# Parameters: regimen Daily Repeat, gender Male, age 6-8 weeks
# Details: in vivo, po, […], route oral GAVAGE, dose 1.2 mg/Kg, dose level Low; for ABSOLUTE BASOPHIL / ABSOLUTE EOSINOPHIL / ABSOLUTE LYMPHOCYTE / ABSOLUTE MONOCYTE / ABSOLUTE SEGMENTED NEUTROPHIL / BASOPHIL / EOSINOPHIL / ERYTHROCYTE COUNT / HEMATOCRIT / HEMOGLOBIN / LEUKOCYTE COUNT / LYMPHOCYTE / MEAN CORPUSCULAR HEMOGLOBIN / MEAN CORPUSCULAR HEMOGLOBIN CONCENTRATION / MEAN CORPUSCULAR VOLUME / MONOCYTE / NEUTROPHIL / NUCLEATED RED BLOOD CELLS / PLATELET COUNT: tissue Blood; for ALANINE AMINOTRANSFERASE / ALBUMIN / ALKALINE PHOSPHATASE / ASPARTATE AMINOTRANSFERASE / BLOOD UREA NITROGEN / CARBON DIOXIDE / CHLORIDE / CHOLESTEROL / CREATINE PHOSPHOKINASE / CREATININE / GLUCOSE / LACTATE DEHYDROGENASE / LIPASE / PHOSPHORUS / POTASSIUM / SODIUM / TOTAL BILIRUBIN / TOTAL PROTEIN / URIC ACID: tissue Plasma
smiles,measurement,setting,value
CNC(=C[N+](=O)[O-])NCCSCc1csc(CN(C)C)n1 [NIZATIDINE],ABSOLUTE BASOPHIL,"72 h, time 3 day",0 CELLS/uL
same,ABSOLUTE EOSINOPHIL,"72 h, time 3 day",34 CELLS/uL
same,ABSOLUTE LYMPHOCYTE,"72 h, time 3 day",10569 CELLS/uL
same,ABSOLUTE MONOCYTE,"72 h, time 3 day",72 CELLS/uL
same,ABSOLUTE SEGMENTED NEUTROPHIL,"72 h, time 3 day",2425 CELLS/uL
same,BASOPHIL,"72 h, time 3 day",0%
same,EOSINOPHIL,"72 h, time 3 day",0.33%
same,ERYTHROCYTE COUNT,"72 h, time 3 day",5.9 x10E6/uL
same,HEMATOCRIT,"72 h, time 3 day",35.07%
same,HEMOGLOBIN,"72 h, time 3 day",13.63 G/DL
same,LEUKOCYTE COUNT,"72 h, time 3 day",13.1 x10E3/uL
same,LYMPHOCYTE,"72 h, time 3 day",80.33%
same,MEAN CORPUSCULAR HEMOGLOBIN,"72 h, time 3 day",23.13 pg
same,MEAN CORPUSCULAR HEMOGLOBIN CONCENTRATION,"72 h, time 3 day",38.87 G/DL
same,MEAN CORPUSCULAR VOLUME,"72 h, time 3 day",59.5 fL
same,MONOCYTE,"72 h, time 3 day",0.67%
same,NEUTROPHIL,"72 h, time 3 day",18.67%
same,NUCLEATED RED BLOOD CELLS,"72 h, time 3 day",0.67 /100WBC
same,PLATELET COUNT,"72 h, time 3 day",1288.67 x10E3/uL
same,ALANINE AMINOTRANSFERASE,"72 h, time 3 day",58.33 u/L
same,ALBUMIN,"72 h, time 3 day",4.07 G/DL
same,ALKALINE PHOSPHATASE,"72 h, time 3 day",348.67 u/L
same,ASPARTATE AMINOTRANSFERASE,"72 h, time 3 day",87.67 u/L
same,BLOOD UREA NITROGEN,"72 h, time 3 day",12.67 mg/dL
same,CARBON DIOXIDE,"72 h, time 3 day",26 mmol/L
same,CHLORIDE,"72 h, time 3 day",101 MEQ/L
same,CHOLESTEROL,"72 h, time 3 day",72.67 mg/dL
same,CREATINE PHOSPHOKINASE,"72 h, time 3 day",343.33 u/L
same,CREATININE,"72 h, time 3 day",0.16 mg/dL
same,GLUCOSE,"72 h, time 3 day",162.67 mg/dL
same,LACTATE DEHYDROGENASE,"72 h, time 3 day",208 u/L
same,LIPASE,"72 h, time 3 day",10 u/L
same,PHOSPHORUS,"72 h, time 3 day",13.27 mg/dL
same,POTASSIUM,"72 h, time 3 day",7.68 MEQ/L
same,SODIUM,"72 h, time 3 day",143.37 MEQ/L
same,TOTAL BILIRUBIN,"72 h, time 3 day",0.2 mg/dL
same,TOTAL PROTEIN,"72 h, time 3 day",5.6 G/DL
same,URIC ACID,"72 h, time 3 day",2 mg/dL
same,ABSOLUTE BASOPHIL,"120 h, time 5 day",0 CELLS/uL
same,ABSOLUTE EOSINOPHIL,"120 h, time 5 day",0 CELLS/uL
same,ABSOLUTE LYMPHOCYTE,"120 h, time 5 day",14620.33 CELLS/uL
same,ABSOLUTE MONOCYTE,"120 h, time 5 day",0 CELLS/uL
same,ABSOLUTE SEGMENTED NEUTROPHIL,"120 h, time 5 day",2246.33 CELLS/uL
same,BASOPHIL,"120 h, time 5 day",0%
same,EOSINOPHIL,"120 h, time 5 day",0%
same,ERYTHROCYTE COUNT,"120 h, time 5 day",5.78 x10E6/uL
same,HEMATOCRIT,"120 h, time 5 day",35.77%
same,HEMOGLOBIN,"120 h, time 5 day",14.27 G/DL
same,LEUKOCYTE COUNT,"120 h, time 5 day",16.87 x10E3/uL
same,LYMPHOCYTE,"120 h, time 5 day",87%
same,MEAN CORPUSCULAR HEMOGLOBIN,"120 h, time 5 day",24.63 pg
same,MEAN CORPUSCULAR HEMOGLOBIN CONCENTRATION,"120 h, time 5 day",39.9 G/DL
same,MEAN CORPUSCULAR VOLUME,"120 h, time 5 day",61.87 fL
same,MONOCYTE,"120 h, time 5 day",0%
same,NEUTROPHIL,"120 h, time 5 day",13%
same,NUCLEATED RED BLOOD CELLS,"120 h, time 5 day",0 /100WBC
same,PLATELET COUNT,"120 h, time 5 day",1147.67 x10E3/uL
same,ALANINE AMINOTRANSFERASE,"120 h, time 5 day",54.33 u/L
same,ALBUMIN,"120 h, time 5 day",4.27 G/DL
same,ALKALINE PHOSPHATASE,"120 h, time 5 day",454.67 u/L
same,ASPARTATE AMINOTRANSFERASE,"120 h, time 5 day",86.67 u/L
same,BLOOD UREA NITROGEN,"120 h, time 5 day",11.67 mg/dL
same,CARBON DIOXIDE,"120 h, time 5 day",27 mmol/L
same,CHLORIDE,"120 h, time 5 day",101.33 MEQ/L
same,CHOLESTEROL,"120 h, time 5 day",63.33 mg/dL
same,CREATINE PHOSPHOKINASE,"120 h, time 5 day",239.33 u/L
same,CREATININE,"120 h, time 5 day",0.2 mg/dL
same,GLUCOSE,"120 h, time 5 day",154 mg/dL
same,LACTATE DEHYDROGENASE,"120 h, time 5 day",176.67 u/L
same,LIPASE,"120 h, time 5 day",10 u/L
same,PHOSPHORUS,"120 h, time 5 day",11.33 mg/dL
same,POTASSIUM,"120 h, time 5 day",6.56 MEQ/L
same,SODIUM,"120 h, time 5 day",143.2 MEQ/L
same,TOTAL BILIRUBIN,"120 h, time 5 day",0.17 mg/dL
same,TOTAL PROTEIN,"120 h, time 5 day",5.87 G/DL
same,URIC ACID,"120 h, time 5 day",1.7 mg/dL
